Measurements from PubChem BioAssay AID248 (DTP/NCI, 2004).
Toxic doses and inconclusive results are not listed. Rule as the data show it: active = T/C of 150% or more; inactive = T/C below 125%.

Tested on: L1210 leukemia ip in BDF1 mice, survival T/C
Assay: NCI In Vivo Anticancer Drug Screen. Data for tumor model L1210 Leukemia (intraperitoneal) in B6D2F1 (BDF1) mice
Details: higher = longer survival
Method in brief: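 Value reflects the ratio of survival in compound-treated mice to survival in vehicle-treated controls, with both groups carrying the same transplanted tumor.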

[1] = endpoint: mean survival time, dose: 100.0 mg/kg/injection, schedule: Q01DX009 (ip), vehicle: saline with Tween-80
[2] = endpoint: mean survival time, dose: 100.0 mg/kg/injection, schedule: Q04DX003 (ip), vehicle: saline with Tween-80
[3] = endpoint: mean survival time, dose: 200.0 mg/kg/injection, schedule: Q01DX009 (ip), vehicle: saline with Tween-80
[4] = endpoint: mean survival time, dose: 200.0 mg/kg/injection, schedule: Q04DX003 (ip), vehicle: saline with Tween-80
[5] = endpoint: mean survival time, dose: 400.0 mg/kg/injection, schedule: Q01DX009 (ip), vehicle: saline with Tween-80
[6] = endpoint: mean survival time, dose: 400.0 mg/kg/injection, schedule: Q04DX003 (ip), vehicle: saline with Tween-80

Measured: T/C

CCCCCCC(=O)O[C@H]1CC[C@H]2[C@@H]3CCC4=CC(=O)CC[C@]4(C)[C@H]3CC[C@]12C
inactive: endpoint: median survival time, dose: 2.0 mg/kg/injection, schedule: Q04DX024 (ip), vehicle: other 94 % of control | endpoint: median survival time, dose: 4.0 mg/kg/injection, schedule: Q01DX016 (ip), vehicle: other 92 % of control | endpoint: median survival time, dose: 4.0 mg/kg/injection, schedule: Q04DX024 (ip), vehicle: other 94 % of control | endpoint: median survival time, dose: 8.0 mg/kg/injection, schedule: Q01DX008 (ip), vehicle: other 95 % of control | endpoint: median survival time, dose: 8.0 mg/kg/injection, schedule: Q01DX009 (ip), vehicle: other 98 % of control | endpoint: median survival time, dose: 8.0 mg/kg/injection, schedule: Q01DX016 (ip), vehicle: other 92 % of control | endpoint: median survival time, dose: 8.0 mg/kg/injection, schedule: Q04DX024 (ip), vehicle: other 91 % of control | endpoint: median survival time, dose: 16.0 mg/kg/injection, schedule: Q01DX008 (ip), vehicle: other 95 % of control | endpoint: median survival time, dose: 16.0 mg/kg/injection, schedule: Q01DX009 (ip), vehicle: other 97 % of control | endpoint: median survival time, dose: 16.0 mg/kg/injection, schedule: Q01DX016 (ip), vehicle: other 90 % of control | endpoint: median survival time, dose: 16.0 mg/kg/injection, schedule: Q04DX003 (ip), vehicle: other 98 % of control | endpoint: median survival time, dose: 16.0 mg/kg/injection, schedule: Q04DX024 (ip), vehicle: other 94 % of control | endpoint: median survival time, dose: 32.0 mg/kg/injection, schedule: Q01DX008 (ip), vehicle: other 112 % of control | endpoint: median survival time, dose: 32.0 mg/kg/injection, schedule: Q01DX009 (ip), vehicle: other 111 % of control | endpoint: median survival time, dose: 32.0 mg/kg/injection, schedule: Q01DX016 (ip), vehicle: other 95 % of control | endpoint: median survival time, dose: 32.0 mg/kg/injection, schedule: Q04DX003 (ip), vehicle: other 100 % of control | endpoint: median survival time, dose: 32.0 mg/kg/injection, schedule: Q04DX024 (ip), vehicle: other 92 % of control | endpoint: median survival time, dose: 32.0 mg/kg/injection, schedule: Q08DX002 (ip), vehicle: other 102 % of control | endpoint: median survival time, dose: 64.0 mg/kg/injection, schedule: Q01DX001 (ip), vehicle: other 98 % of control | endpoint: median survival time, dose: 64.0 mg/kg/injection, schedule: Q01DX008 (ip), vehicle: other 91 % of control | endpoint: median survival time, dose: 64.0 mg/kg/injection, schedule: Q01DX009 (ip), vehicle: other 92 % of control | endpoint: median survival time, dose: 64.0 mg/kg/injection, schedule: Q01DX016 (ip), vehicle: other 89 % of control | endpoint: median survival time, dose: 64.0 mg/kg/injection, schedule: Q04DX003 (ip), vehicle: other 107 % of control | endpoint: median survival time, dose: 64.0 mg/kg/injection, schedule: Q08DX002 (ip), vehicle: other 98 % of control | endpoint: median survival time, dose: 128.0 mg/kg/injection, schedule: Q01DX001 (ip), vehicle: other 104 % of control | endpoint: median survival time, dose: 128.0 mg/kg/injection, schedule: Q01DX009 (ip), vehicle: other 97 % of control | endpoint: median survival time, dose: 128.0 mg/kg/injection, schedule: Q04DX003 (ip), vehicle: other 101 % of control | endpoint: median survival time, dose: 128.0 mg/kg/injection, schedule: Q08DX002 (ip), vehicle: other 101 % of control | endpoint: median survival time, dose: 256.0 mg/kg/injection, schedule: Q01DX001 (ip), vehicle: other 122 % of control | endpoint: median survival time, dose: 256.0 mg/kg/injection, schedule: Q01DX009 (ip), vehicle: other 106 % of control | endpoint: median survival time, dose: 256.0 mg/kg/injection, schedule: Q04DX003 (ip), vehicle: other 102 % of control | endpoint: median survival time, dose: 256.0 mg/kg/injection, schedule: Q08DX002 (ip), vehicle: other 104 % of control | endpoint: median survival time, dose: 512.0 mg/kg/injection, schedule: Q01DX001 (ip), vehicle: other 101 % of control | endpoint: median survival time, dose: 512.0 mg/kg/injection, schedule: Q08DX002 (ip), vehicle: other 106 % of control

CCC(=O)C(CC)c1ccccc1 (configuration not stated)
inactive: [1] 95 % of control | [2] 102 % of control | [3] 94 % of control | [4] 97 % of control | [5] 100 % of control | [6] 97 % of control

CC1C(=O)CC(C)(C)CC1=O
inactive: [1] 105 % of control | [3] 109 % of control | [5] 104 % of control

CSC(=N)c1cccc(OCc2ccccc2)c1
inactive: endpoint: mean survival time, dose: 100.0 mg/kg/injection, schedule: Q01DX009 (ip), vehicle: Klucel (hydroxypropylcellulose) (HPC) 113 % of control | endpoint: mean survival time, dose: 100.0 mg/kg/injection, schedule: Q04DX002 (ip), vehicle: Klucel (hydroxypropylcellulose) (HPC) 100 % of control | endpoint: mean survival time, dose: 100.0 mg/kg/injection, schedule: Q04DX002 (ip), vehicle: saline 102 % of control | endpoint: mean survival time, dose: 200.0 mg/kg/injection, schedule: Q01DX009 (ip), vehicle: Klucel (hydroxypropylcellulose) (HPC) 96 % of control | endpoint: mean survival time, dose: 200.0 mg/kg/injection, schedule: Q04DX002 (ip), vehicle: Klucel (hydroxypropylcellulose) (HPC) 103 % of control | endpoint: mean survival time, dose: 200.0 mg/kg/injection, schedule: Q04DX002 (ip), vehicle: saline 102 % of control | endpoint: mean survival time, dose: 400.0 mg/kg/injection, schedule: Q04DX002 (ip), vehicle: Klucel (hydroxypropylcellulose) (HPC) 94 % of control | endpoint: mean survival time, dose: 400.0 mg/kg/injection, schedule: Q04DX002 (ip), vehicle: saline 102 % of control

NC(CSc1ccc([N+](=O)[O-])cc1Cl)C(=O)O (configuration not stated)
inactive: endpoint: mean survival time, dose: 75.0 mg/kg/injection, schedule: Q01DX001 (ip), vehicle: saline 100 % of control | endpoint: mean survival time, dose: 150.0 mg/kg/injection, schedule: Q01DX001 (ip), vehicle: saline 90 % of control | endpoint: mean survival time, dose: 300.0 mg/kg/injection, schedule: Q01DX001 (ip), vehicle: saline 92 % of control

CCNC(=O)C1C2C=CC(CC2)C1C(=O)NCC (configuration not stated)
inactive: [2] 87 % of control | [4] 96 % of control | [6] 96 % of control

CCOC(=O)NCc1cccc2ccccc12
inactive: endpoint: mean survival time, dose: 50.0 mg/kg/injection, schedule: Q01DX001 (ip), vehicle: Klucel (hydroxypropylcellulose) (HPC) 93 % of control | endpoint: mean survival time, dose: 100.0 mg/kg/injection, schedule: Q01DX001 (ip), vehicle: Klucel (hydroxypropylcellulose) (HPC) 98 % of control | endpoint: mean survival time, dose: 200.0 mg/kg/injection, schedule: Q01DX001 (ip), vehicle: Klucel (hydroxypropylcellulose) (HPC) 90 % of control | endpoint: mean survival time, dose: 400.0 mg/kg/injection, schedule: Q01DX001 (ip), vehicle: Klucel (hydroxypropylcellulose) (HPC) 86 % of control

NCC(=O)c1ccc(O)c(O)c1
inactive: endpoint: mean survival time, dose: 100.0 mg/kg/injection, schedule: Q01DX001 (ip), vehicle: saline 101 % of control | endpoint: mean survival time, dose: 100.0 mg/kg/injection, schedule: Q01DX009 (ip), vehicle: saline 122 % of control | endpoint: mean survival time, dose: 100.0 mg/kg/injection, schedule: Q04DX003 (ip), vehicle: saline 97 % of control | endpoint: mean survival time, dose: 175.0 mg/kg/injection, schedule: Q01DX Z (ip), vehicle: methylcellulose (MC) 115 % of control | endpoint: mean survival time, dose: 200.0 mg/kg/injection, schedule: Q01DX001 (ip), vehicle: saline 93 % of control | endpoint: mean survival time, dose: 200.0 mg/kg/injection, schedule: Q04DX003 (ip), vehicle: saline 97 % of control | endpoint: mean survival time, dose: 260.0 mg/kg/injection, schedule: Q01DX Z (ip), vehicle: carboxymethylcellulose (CMC) 112 % of control | endpoint: mean survival time, dose: 260.0 mg/kg/injection, schedule: Q01DX Z (ip), vehicle: methylcellulose (MC) 121 % of control | endpoint: mean survival time, dose: 270.0 mg/kg/injection, schedule: Q01DX Z (ip), vehicle: methylcellulose (MC) 117 % of control | endpoint: mean survival time, dose: 400.0 mg/kg/injection, schedule: Q01DX001 (ip), vehicle: saline 104 % of control | endpoint: mean survival time, dose: 400.0 mg/kg/injection, schedule: Q01DX009 (ip), vehicle: saline 124 % of control | endpoint: mean survival time, dose: 400.0 mg/kg/injection, schedule: Q01DX Z (ip), vehicle: methylcellulose (MC) 112 % of control | endpoint: mean survival time, dose: 400.0 mg/kg/injection, schedule: Q04DX003 (ip), vehicle: saline 95 % of control | endpoint: mean survival time, dose: 600.0 mg/kg/injection, schedule: Q01DX Z (ip), vehicle: carboxymethylcellulose (CMC) 116 % of control | endpoint: mean survival time, dose: 600.0 mg/kg/injection, schedule: Q01DX Z (ip), vehicle: methylcellulose (MC) 114 % of control | endpoint: mean survival time, dose: 1344.0 mg/kg/injection, schedule: Q01DX Z (ip), vehicle: carboxymethylcellulose (CMC) 92 % of control
